{"source": "patent US6481154B1", "about": "“Method of large-scale propagation of trees of genus Swietenia” (Sumitomo Forestry Co., Ltd., priority 2000, dated 2002)", "tested_on": "terminal buds of Swietenia macrophylla", "experiment": "Induction of multiple shoots from terminal buds on modified B5 medium", "type": "cell-based", "conditions": "IBA 0 mg/l", "description": "Terminal buds were excised from mature trees of Swietenia macrophylla and subjected to surface sterilization in 70% ethanol for 30 seconds and then in 2% sodium hypochlorite for 6 minutes, washed several times with sterilized water and dried on a sterilized filter paper.\nTo a modified B5 medium (which was a B5 medium amounts of all the components were each made a half were added 30 g/l of sucrose, and 0 to 0.02 mg/l of IBA and 0.02 to 1.0 mg/l of BAP as plant growth regulators, followed by pH adjustment to 5.7 and sterilization. The medium so prepared was used as a multiple shoots-inducing medium, and was used at a culturing temperature of 26±2° C. under illumination of fluorescent lamps for 16 hours per day (3,000 to 9,000 Lux). One to 3 months after the start of culturing, multiple shoots were induced.", "data": [{"smiles": "c1ccc(CNc2ncnc3[nH]cnc23)cc1", "note": "[BAP, benzylaminopurine]", "values": [{"measurement": "Number of formed multiple shoots/Number of total tested terminal buds", "setting": "BAP 0.02 mg/l", "value": "1/20"}, {"measurement": "Number of formed multiple shoots/Number of total tested terminal buds", "setting": "BAP 0.2 mg/l", "value": "5/20"}, {"measurement": "Number of formed multiple shoots/Number of total tested terminal buds", "setting": "BAP 1.0 mg/l", "value": "8/20"}]}]}
